Values quoted from earlier work as cited in US9758545B2, “Sensor with a scaffold having changeable conformations” (UNIVERSITÉ DE FRIBOURG, priority 2010, dated 2017).

Conditions: antibiotics integrated into implant cements

CN[C@H](CC(C)C)C(=O)N[C@H]1C(=O)N[C@@H](CC(N)=O)C(=O)N[C@H]2C(=O)N[C@H]3C(=O)NC(C(=O)N[C@@H](C(=O)O)c4cc(O)cc(O)c4-c4cc3ccc4O)[C@H](O)c3ccc(c(Cl)c3)Oc3cc2cc(c3O[C@@H]2OC(CO)[C@@H](O)C(O)C2O[C@H]2CC(C)(N)[C@H](O)C(C)O2)Oc2ccc(cc2Cl)[C@H]1O (stereo partly shown) [Vancomycin]
temperature sensitive above: above 25 °C
